From patent publication US12552826B2, “PRMT5 inhibitors” (Merck Sharp & Dohme LLC, priority 2018, dated 2026)
Where two headings read alike, the source gives them in different places.

Experiments:
[1] = biological target: T1, PRMT5-MEP50 enzyme complex (Homo sapiens, UniProt O14744); assay: PRMT5-MEP50 Enzyme Methylation Assay; format: biochemical
T1 construct: Full-length (FL)-PRMT5-MEP50 enzyme complex (recombinant proteins from baculovirus-transfected Sf21 cells); made in house; host or cells: baculovirus-transfected Sf21 insect cells
Description: PRMT5-MEP50 biochemical assay is a direct measurement of the methylation activity of the enzyme complex on a short peptide substrate derived from the N-terminus of H4 histone. Methylation experiment is performed with recombinant PRMT5-MEP50 protein complex. The assessment of inhibitory effect of small molecules is measured by the effectiveness of the compounds to inhibit this reaction (EC50).
In this assay, the potency (EC50) of each compound was determined from a twenty-point (1:2 serial dilution; top compound concentration of 100000 nM) titration curve using the following outlined procedure. To each well of a white ProxiPlus 384 well-plate, 100 nL of compound (1% DMSO in final assay volume of 10 μL) was dispensed, followed by the addition of 8 μL of 1× assay buffer (50 mM Bicine pH 8.0, 1 mM DTT, 0.004% Tween20, 0.01% BSA) containing 1.25 nM of Full-length (FL)-PRMT5-MEP50 enzyme complex (recombinant proteins from baculovirus-transfected Sf21 cells: FL-PRMT5; MW=[…] and FL-MEP50; MW=38614) and 1 μL of 150 μM S-(5′-Adenosyl)-L-Methionine Chloride (SAM). Plates were sealed and placed in a 37° C. humidified chamber for a 60 minutes pre-incubation with compound. Subsequently, each reaction was initiated by the addition of 1 μL 1× assay buffer containing 750 nM biotinylated H4R3 (Me1) peptide. The final reaction in each well of 10 μL consists of 1.0 nM PRMT5-MEP50, 75 nM biotinylated-peptide, and 15 μM SAM. Methylation reactions were allowed to proceed for 150 minutes in a sealed plate at 37° C. Reactions were immediately quenched by the addition of 1 μL of 5% formic acid. Plates were then frozen and shipped to SAMDITM Tech Inc. to determine the percent conversion from H4R^3 (Me1) to H4R^3 (Me2). Dose-response curves were generated by plotting percent effect (% product conversion; Y-axis) vs. Log10 compound concentrations (X-axis). EC50 values were determined by non-linear regression according to models for either sigmoidal (4 parameters) or biphasic (7 parameters) dose-response curves.

PRMT5 = biological target: T2, PRMT5 (Homo sapiens, UniProt O14744); assay: PRMT5 Cell Target Engagement (TE) Assay; format: cell-based; details: MCF-7 cells, 3 days treatment, nuclear SDMA by high content imaging
T2 construct: endogenous in cells; host or cells: MCF-7
Summary of the method: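 MCF-7 cells seeded 5 h, then treated 3 days at 37 °C with 10-point 1:3 dilutions from 10000 nM. Fixed cells immunostained for SDMA with AF488 secondary; nuclear intensity imaged per cell and expressed as % inhibition vs DMSO. EC50 from 4-parameter robust fit.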

[2] = recombinant FL-PRMT5-MEP50, biotinylated H4R3(Me1) peptide, 15 μM SAM, single EC50 (4 parameter sigmoidal fit) or first EC50 of 7 parameter biphasic fit, read-out: Enzyme Methylation Assay (EC50 or EC50_1)
[3] = second EC50 of 7 parameter biphasic fit, read-out: Enzyme Methylation Assay (EC50_2)

T2 sequence (O14744 whole entry): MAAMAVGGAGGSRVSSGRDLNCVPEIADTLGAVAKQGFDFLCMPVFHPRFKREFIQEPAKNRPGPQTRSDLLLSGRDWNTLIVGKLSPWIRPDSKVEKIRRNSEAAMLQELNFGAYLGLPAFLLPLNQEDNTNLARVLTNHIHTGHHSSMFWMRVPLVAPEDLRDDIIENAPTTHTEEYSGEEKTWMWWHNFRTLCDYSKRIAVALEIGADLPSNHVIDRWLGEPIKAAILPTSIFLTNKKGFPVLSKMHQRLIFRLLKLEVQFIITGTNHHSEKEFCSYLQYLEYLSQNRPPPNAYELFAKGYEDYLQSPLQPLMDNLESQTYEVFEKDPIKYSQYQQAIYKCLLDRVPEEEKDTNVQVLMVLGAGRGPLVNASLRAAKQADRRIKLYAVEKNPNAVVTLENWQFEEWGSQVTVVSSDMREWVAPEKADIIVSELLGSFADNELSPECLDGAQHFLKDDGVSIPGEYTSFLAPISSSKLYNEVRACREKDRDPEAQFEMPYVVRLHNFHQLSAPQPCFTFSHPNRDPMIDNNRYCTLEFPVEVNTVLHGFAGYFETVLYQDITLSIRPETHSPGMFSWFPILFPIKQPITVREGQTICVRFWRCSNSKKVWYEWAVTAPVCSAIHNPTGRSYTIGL
T2 sequence (Q9BQA1 whole entry partner): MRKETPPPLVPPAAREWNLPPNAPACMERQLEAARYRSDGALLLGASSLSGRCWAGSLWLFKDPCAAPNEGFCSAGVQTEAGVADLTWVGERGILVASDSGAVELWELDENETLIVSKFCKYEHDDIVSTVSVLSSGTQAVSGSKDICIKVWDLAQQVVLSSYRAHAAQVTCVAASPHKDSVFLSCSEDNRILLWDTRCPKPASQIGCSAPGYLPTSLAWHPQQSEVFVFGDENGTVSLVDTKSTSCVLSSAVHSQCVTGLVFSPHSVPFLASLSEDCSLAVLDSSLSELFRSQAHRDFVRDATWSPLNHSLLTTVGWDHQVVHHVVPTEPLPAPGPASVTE
T1 sequence (O14744 whole entry): as the sequence (O14744 whole entry) above
T1 sequence (Q9BQA1 whole entry partner): as the sequence (Q9BQA1 whole entry partner) above

SMILES	EC50 [1, 2]	EC50 [1, 3]	EC50 (PRMT5)
Cc1ncnc2c1ccn2[C@@H]1O[C@H]([C@H](C)c2cccc3c2CNCC3)[C@@](C)(O)[C@H]1O [Example 86, (2R,3S,4R,5R)-3-methyl-5-(4-methyl-7H-pyrrolo[2,3-d]pyrimidin-7-yl)-2-((R)-1-(1,2,3,4-tetrahydroisoquinolin-8-yl)ethyl)tetrahydrofuran-3,4-diol]	343 nM	33100 nM	> 10000 nM
C[C@@]1(O)[C@@H]([C@@H](O)c2cccc3c2CNCC3)O[C@@H](n2ccc3c(N)ncnc32)[C@@H]1O [Example 71, 7-[(5S)-3-C-methyl-5-C-(1,2,3,4-tetrahydroisoquinolin-8-yl)-beta-D-ribofuranosyl]-7H-pyrrolo[2,3-d]pyrimidin-4-amine]	15.5 nM	1700 nM	> 10000 nM
C=C(c1cccc2c1CNCC2)[C@H]1O[C@@H](n2ccc3c(C)ncnc32)[C@H](O)[C@]1(C)O [Example 85, (2R,3S,4R,5R)-3-methyl-5-(4-methyl-7H-pyrrolo[2,3-d]pyrimidin-7-yl)-2-(1-(1,2,3,4-tetrahydroisoquinolin-8-yl)vinyl)tetrahydrofuran-3,4-diol]	34 nM	2660 nM	9380 nM
C[C@@]1(O)[C@@H]([C@H](O)c2cccc3c2CNCC3)O[C@@H](n2ccc3c(N)ncnc32)[C@@H]1O [Example 70, 7-[(5R)-3-C-methyl-5-C-(1,2,3,4-tetrahydroisoquinolin-8-yl)-beta-D-ribofuranosyl]-7H-pyrrolo[2,3-d]pyrimidin-4-amine]	1.79 nM	42 nM	1190 nM

Stronger by EC50 [1, 2], values ahead:

EC50 [1, 2]	EC50 [1, 3]	EC50 (PRMT5)	SMILES
1.47 nM	40 nM	39 nM	C[C@@]1(O)[C@@H]([C@H](O)c2ccc(Cl)c(Cl)c2)O[C@@H](n2ccc3c(N)ncnc32)[C@@H]1O [Example 13, 7-[(5R)-5-C-(3,4-dichlorophenyl)-3-C-methyl-beta-D-ribofuranosyl]-7H-pyrrolo[2,3-d]pyrimidin-4-amine]
0.51 nM	75 nM	65 nM	C[C@@]1(O)[C@@H]([C@H](O)c2ccc(F)c(Cl)c2)O[C@@H](n2ccc3c(N)ncnc32)[C@@H]1O [Example 15, 7-[(5R)-5-C-(3-chloro-4-fluorophenyl)-3-C-methyl-beta-D-ribofuranosyl]-7H-pyrrolo[2,3-d]pyrimidin-4-amine]
